Experimental data taken from ChEMBL document CHEMBL5029152, “Discovery of Highly Potent and Selective IRAK1 Degraders to Probe Scaffolding Functions of IRAK1 in ABC DLBCL” (J Med Chem, 2021).
The source made the active and inactive calls. The calls are words filed in the database; no cut-off is given here.

Key:
[1] = biological target: T1, Interleukin-1 receptor-associated kinase 1 (Homo sapiens, UniProt P51617); assay: Inhibition of truncated human N-terminal GST-fusion tagged IRAK1 (194 to 712 residues) expressed in baculovirus expression system using FAM-labelled peptide as substrate preincubated for 10 mins followed by substrate addition and further incubated for 1 hr in presence of ATP at Km concentration by caliper mobility shift assay
Target sequence in this assay (P51617 whole entry, the tested form may be a part): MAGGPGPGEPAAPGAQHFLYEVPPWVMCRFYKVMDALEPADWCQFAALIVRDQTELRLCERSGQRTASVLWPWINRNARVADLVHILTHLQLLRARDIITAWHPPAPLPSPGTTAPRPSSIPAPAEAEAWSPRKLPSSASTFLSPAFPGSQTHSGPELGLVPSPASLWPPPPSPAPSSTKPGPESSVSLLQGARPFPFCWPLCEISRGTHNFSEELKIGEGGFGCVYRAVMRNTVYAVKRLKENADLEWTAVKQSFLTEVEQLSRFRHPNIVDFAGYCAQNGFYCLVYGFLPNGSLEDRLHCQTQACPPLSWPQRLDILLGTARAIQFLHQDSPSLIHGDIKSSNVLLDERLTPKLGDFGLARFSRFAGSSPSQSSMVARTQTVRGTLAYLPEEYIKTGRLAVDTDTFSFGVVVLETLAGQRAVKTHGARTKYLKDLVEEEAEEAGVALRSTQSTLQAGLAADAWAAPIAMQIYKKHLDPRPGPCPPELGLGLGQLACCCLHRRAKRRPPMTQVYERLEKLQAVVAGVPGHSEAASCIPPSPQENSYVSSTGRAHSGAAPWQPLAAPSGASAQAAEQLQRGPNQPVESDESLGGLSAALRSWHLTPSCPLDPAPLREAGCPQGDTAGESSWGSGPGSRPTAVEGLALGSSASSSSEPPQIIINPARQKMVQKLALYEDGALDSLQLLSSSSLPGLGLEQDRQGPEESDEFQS

[2] = biological target: T2, von Hippel-Lindau disease tumor suppressor/Interleukin-1 receptor-associated kinase 1 (Homo sapiens, UniProt P51617+P40337); assay: Protac activity at IRAK1/VHL E3 ligase in HEK293T cells assessed as induction of IRAK1 degradation at 10 uM measured after 24 hrs by Western blot analysis relative to control; format: cell-based
Target sequence in this assay (P40337 whole entry, looked up): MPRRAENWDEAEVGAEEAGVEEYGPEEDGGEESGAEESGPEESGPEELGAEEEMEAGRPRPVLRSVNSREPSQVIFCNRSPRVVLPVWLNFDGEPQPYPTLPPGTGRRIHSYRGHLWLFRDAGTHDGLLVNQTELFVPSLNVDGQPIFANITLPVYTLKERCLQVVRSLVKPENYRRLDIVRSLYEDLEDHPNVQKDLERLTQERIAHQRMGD
Target sequence in this assay (P51617 whole entry, looked up): as the sequence (P51617 whole entry, the tested form may be a part) above

[3] = biological target: T2, von Hippel-Lindau disease tumor suppressor/Interleukin-1 receptor-associated kinase 1; assay: Protac activity at IRAK1/VHL E3 ligase in HEK293T cells assessed as induction of IRAK1 degradation measured after 24 hrs by Western blot analysis; format: cell-based
Target sequence in this assay (P51617 whole entry): as the sequence (P51617 whole entry, the tested form may be a part) above
Target sequence in this assay (P40337 whole entry): as the sequence (P40337 whole entry, looked up) above

[4] = biological target: T2, von Hippel-Lindau disease tumor suppressor/Interleukin-1 receptor-associated kinase 1; assay: Protac activity at IRAK1/VHL E3 ligase in HEK293T cells assessed as induction of IRAK1 degradation at 1 uM measured after 24 hrsin presence of proteasome inhibitior MG-132 by Western blot analysis; format: cell-based; conditions: time 24.0 hrs
Target sequence in this assay (P40337 whole entry, looked up): as above
Target sequence in this assay (P51617 whole entry, looked up): as the sequence (P51617 whole entry, the tested form may be a part) above

[5] = biological target: T2, von Hippel-Lindau disease tumor suppressor/Interleukin-1 receptor-associated kinase 1; assay: Protac activity at IRAK1/VHL E3 ligase in HEK293T cells assessed as induction of IRAK1 degradation at 1 uM measured after 24 hrsin presence of VH298 by Western blot analysis; format: cell-based; conditions: time 24.0 hrs
Target sequence in this assay (P40337 whole entry, looked up): as the sequence (P40337 whole entry, looked up) above
Target sequence in this assay (P51617 whole entry, looked up): as the sequence (P51617 whole entry, the tested form may be a part) above

[6] = biological target: T1, Interleukin-1 receptor-associated kinase 1; assay: Induction of IRAK1 degradation in human Toledo cells assessed as decrease in protein abundance at 1 uM measured after 6 hrs by quantitative mass spectrometry; format: cell-based
Target sequence in this assay (P51617 whole entry, looked up, the tested form may be a part): as the sequence (P51617 whole entry, the tested form may be a part) above

[7] = biological target: T3, Cyclin-G-associated kinase (Homo sapiens) (UniProt O14976); assay: Induction of GAK degradation in human Toledo cells assessed as decrease in protein abundance at 1 uM measured after 6 hrs by quantitative mass spectrometry; format: cell-based
T3 sequence (whole entry): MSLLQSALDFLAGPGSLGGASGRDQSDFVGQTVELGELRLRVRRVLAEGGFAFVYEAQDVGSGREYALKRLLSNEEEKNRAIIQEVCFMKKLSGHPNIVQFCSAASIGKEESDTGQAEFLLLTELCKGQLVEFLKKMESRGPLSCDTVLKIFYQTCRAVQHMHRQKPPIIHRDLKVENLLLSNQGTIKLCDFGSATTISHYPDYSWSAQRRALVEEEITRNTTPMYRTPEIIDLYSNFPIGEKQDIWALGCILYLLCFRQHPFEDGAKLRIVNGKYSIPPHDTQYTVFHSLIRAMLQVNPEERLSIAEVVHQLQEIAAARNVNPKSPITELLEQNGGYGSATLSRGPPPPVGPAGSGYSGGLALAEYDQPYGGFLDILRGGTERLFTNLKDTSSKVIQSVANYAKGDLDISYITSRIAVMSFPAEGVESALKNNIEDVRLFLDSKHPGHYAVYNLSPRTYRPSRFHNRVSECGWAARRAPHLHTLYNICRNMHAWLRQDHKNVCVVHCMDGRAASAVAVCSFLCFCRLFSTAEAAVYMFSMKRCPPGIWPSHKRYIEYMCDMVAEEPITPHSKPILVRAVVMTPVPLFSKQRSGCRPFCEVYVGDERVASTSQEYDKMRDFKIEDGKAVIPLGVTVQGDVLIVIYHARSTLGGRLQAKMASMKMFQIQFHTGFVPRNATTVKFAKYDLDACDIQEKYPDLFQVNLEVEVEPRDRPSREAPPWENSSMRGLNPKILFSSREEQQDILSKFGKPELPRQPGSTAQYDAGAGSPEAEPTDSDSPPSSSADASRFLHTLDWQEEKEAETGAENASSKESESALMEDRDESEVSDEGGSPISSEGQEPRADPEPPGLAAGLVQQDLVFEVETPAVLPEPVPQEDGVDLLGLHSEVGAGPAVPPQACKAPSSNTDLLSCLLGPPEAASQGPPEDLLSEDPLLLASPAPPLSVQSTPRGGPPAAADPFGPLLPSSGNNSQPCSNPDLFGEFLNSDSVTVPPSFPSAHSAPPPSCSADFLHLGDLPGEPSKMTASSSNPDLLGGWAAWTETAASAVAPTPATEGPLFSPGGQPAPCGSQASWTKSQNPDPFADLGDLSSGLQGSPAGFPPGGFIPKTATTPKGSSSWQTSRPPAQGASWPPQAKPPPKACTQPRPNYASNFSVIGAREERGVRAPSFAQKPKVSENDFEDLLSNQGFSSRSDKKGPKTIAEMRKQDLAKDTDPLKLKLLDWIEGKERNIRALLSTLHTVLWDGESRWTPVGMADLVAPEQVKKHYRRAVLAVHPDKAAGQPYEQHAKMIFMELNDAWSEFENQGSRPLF

[8] = biological target: T3, Cyclin-G-associated kinase (Homo sapiens); assay: Inhibition of wild-type human partial length GAK (G13 to Y338 residues) expressed in bacterial expression system at 1 uM by Kinomescan method relative to control
[9] = biological target: T3, Cyclin-G-associated kinase (Homo sapiens); assay: Induction of GAK degradation in human Toledo cells at 1 uM measured after 6 hrs by quantitative mass spectrometry relative to control; format: cell-based
[10] = biological target: T1, Interleukin-1 receptor-associated kinase 1; assay: Inhibition of IRAK1 in human HBL1 cells assessed as reduction in phosphorylated IKBA level at up to 1 uM measured after 24 hrs by Western blot analysis; format: cell-based; conditions: dose microM <=1, time 24.0 hrs
Target sequence in this assay (P51617 whole entry, looked up, the tested form may be a part): as the sequence (P51617 whole entry, the tested form may be a part) above

HBL1 = assay: Induction of apoptosis in human HBL1 cells assessed as increase in PARP cleavage at up to 1 uM measured after 24 hrs by Western blot analysis; format: functional, cell-based; conditions: dose microM <=1, time 24.0 hrs
OCI-Ly10 = assay: Cytotoxicity against human OCILY10 cells assessed as reduction in cell viability measured after 12 days by CellTiter-Glo assay; format: functional; conditions: time 12 day

- IC50 [1]: 72 nM
- %max [2]: 96%
- DC50 [3]: 3.3 nM
- Activity [4]: inactive
- Activity [5]: inactive
- Activity [6]: Active
- Activity [7]: Active
- inhibition [8]: 63%
- Activity [9]: 50%
- inhibition [10]: Active
Compound: COc1cc(N2CCC(OCC(=O)N[C@H](C(=O)N3C[C@H](O)C[C@H]3C(=O)N[C@@H](C)c3ccc(-c4scnc4C)cc3)C(C)(C)C)CC2)ccc1NC(=O)c1cccc(-c2ccn[nH]2)n1
- Activity (HBL1): Active
- Activity (OCI-Ly10): 170 nM
